Laboratory results published in US10000483B2, “Bone marrow on X chromosome kinase (BMX) inhibitors and uses thereof” (Dana-Farber Cancer Institute, Inc., priority 2012, dated 2018).
Where “and” joins values, the source holds several entries; their conditions need not be identical. Identical values can stand only once.

How the values were obtained:
[1] = system: BCWM.1 cells; test: Cell proliferation analysis for WM and lymphoma cell lines (CellTiter-Glo); assay type: cell-based; settings: BCWM1; 72 hours
[2] = system: MWCL-1 cells; test: as above; assay type: cell-based; settings: 72 hours
[3] = system: OCI-Ly3 cells; test: as above; assay type: cell-based; settings: Homo sapiens, 72 hours
[4] = system: Ramos cells; test: as above; assay type: cell-based; settings: Homo sapiens, 72 hours
[5] = system: OCI-Ly19 cells; test: as above; assay type: cell-based; settings: Homo sapiens, 72 hours
[6] = target: BMX (Homo sapiens (Human), UniProt P51813); test: Invitrogen Select Screening in vitro kinase assay; assay type: biochemical
Sequence of BMX (P51813 whole entry): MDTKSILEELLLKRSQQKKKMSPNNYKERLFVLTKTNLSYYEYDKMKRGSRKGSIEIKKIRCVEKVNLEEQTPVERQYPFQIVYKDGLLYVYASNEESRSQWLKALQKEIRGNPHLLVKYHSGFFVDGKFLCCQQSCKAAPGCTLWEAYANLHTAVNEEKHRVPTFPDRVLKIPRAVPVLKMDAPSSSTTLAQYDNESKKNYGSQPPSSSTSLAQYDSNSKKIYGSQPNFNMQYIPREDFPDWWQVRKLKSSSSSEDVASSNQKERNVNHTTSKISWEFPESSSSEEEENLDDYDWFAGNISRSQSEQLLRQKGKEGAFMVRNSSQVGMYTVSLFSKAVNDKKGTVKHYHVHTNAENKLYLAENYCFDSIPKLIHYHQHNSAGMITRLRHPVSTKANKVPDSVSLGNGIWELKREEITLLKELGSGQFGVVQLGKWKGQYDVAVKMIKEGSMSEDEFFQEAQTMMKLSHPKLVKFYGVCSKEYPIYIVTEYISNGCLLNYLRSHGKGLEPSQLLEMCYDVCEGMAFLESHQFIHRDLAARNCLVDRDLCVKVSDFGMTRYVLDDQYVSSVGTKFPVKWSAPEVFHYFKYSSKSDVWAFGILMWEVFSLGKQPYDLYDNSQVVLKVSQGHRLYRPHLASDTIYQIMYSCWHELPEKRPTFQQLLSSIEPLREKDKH

[7] = target: BTK (Homo sapiens (Human), UniProt Q06187); test: Invitrogen Select Screening in vitro kinase assay; assay type: biochemical
Sequence of BTK (Q06187 whole entry): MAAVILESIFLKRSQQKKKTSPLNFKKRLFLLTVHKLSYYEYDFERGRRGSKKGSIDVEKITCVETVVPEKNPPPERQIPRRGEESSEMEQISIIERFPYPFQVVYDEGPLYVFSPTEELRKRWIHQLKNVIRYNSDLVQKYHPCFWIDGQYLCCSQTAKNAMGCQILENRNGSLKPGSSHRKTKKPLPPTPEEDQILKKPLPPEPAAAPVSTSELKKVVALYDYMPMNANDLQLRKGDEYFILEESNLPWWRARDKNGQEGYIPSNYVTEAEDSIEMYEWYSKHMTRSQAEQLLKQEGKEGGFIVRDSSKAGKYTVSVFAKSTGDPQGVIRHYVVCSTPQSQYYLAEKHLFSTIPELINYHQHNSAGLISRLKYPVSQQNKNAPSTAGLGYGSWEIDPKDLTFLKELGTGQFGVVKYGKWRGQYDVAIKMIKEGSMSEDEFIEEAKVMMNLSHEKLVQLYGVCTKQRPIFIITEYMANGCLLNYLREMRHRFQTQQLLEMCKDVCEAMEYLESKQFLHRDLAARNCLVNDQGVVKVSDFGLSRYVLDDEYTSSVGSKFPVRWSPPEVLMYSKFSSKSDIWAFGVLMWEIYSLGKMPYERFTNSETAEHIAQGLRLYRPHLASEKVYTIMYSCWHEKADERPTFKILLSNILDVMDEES

[8] = target: mTOR (Homo sapiens (Human), UniProt P42345); test: Invitrogen Select Screening in vitro kinase assay; assay type: biochemical
From the text: (§1) The in vitro activity of compounds of Formula (I) and (II) in inhibiting BMX and other kinases were obtained using an Invitrogen Select Screening assay as known in the art. The IC50 values determined from this assay are shown below.

[9] = system: PRCIWM-1 cells; test: Cell proliferation analysis for WM and lymphoma cell lines (CellTiter-Glo); assay type: cell-based; settings: 72 hours
Description: CellTiter-Glo® Luminescent cell viability assay (Promega) was used to assess cell survival following treatment with an inhibitor compound of Formula (I) or (II) (e.g., 1-14). Various cell lines were used including Waldenström's macroglobulinemia (WM) cell lines (BCWM.1, MWCL-1, RPCI-WM1) and B-cell lymphoma cell lines (OCI-Ly3, Ramos, OCI-Ly19). Cells were seeded into 384 well plates with the EL406 Combination Washer Dispenser (BioTek Instruments, Inc.) and inhibitor compounds were injected into the cells culture media with the JANUS Automated Workstation (PerkinElmer Inc.). Cells were treated with a series diluted inhibitor compounds (20˜0.04 μM) for 72 hours at 37° C. Luminescent measurement is performed using the 2104 Envision® Multilabel Reader (PerkinElmer Inc.).

[10] = target: BLK (Homo sapiens (Human), UniProt P51451); test: Invitrogen Select Screening in vitro kinase assay; assay type: biochemical
Sequence of BLK (P51451 whole entry): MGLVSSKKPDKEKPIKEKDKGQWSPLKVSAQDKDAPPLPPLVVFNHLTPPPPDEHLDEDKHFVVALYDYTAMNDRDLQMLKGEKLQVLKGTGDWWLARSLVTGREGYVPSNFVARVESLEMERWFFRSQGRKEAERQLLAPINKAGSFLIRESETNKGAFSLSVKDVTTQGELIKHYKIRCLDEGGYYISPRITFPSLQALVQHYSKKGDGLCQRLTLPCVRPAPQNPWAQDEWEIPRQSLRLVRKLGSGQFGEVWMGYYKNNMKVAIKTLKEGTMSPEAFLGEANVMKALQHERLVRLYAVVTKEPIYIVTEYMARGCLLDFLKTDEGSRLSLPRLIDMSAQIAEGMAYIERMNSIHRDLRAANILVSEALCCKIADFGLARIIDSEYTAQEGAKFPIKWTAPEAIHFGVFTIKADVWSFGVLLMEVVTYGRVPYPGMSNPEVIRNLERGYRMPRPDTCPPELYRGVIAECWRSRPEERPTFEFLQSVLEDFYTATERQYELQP
From the text: as §1

[11] = target: TEC (Homo sapiens (Human), UniProt P42680); test: Invitrogen Select Screening in vitro kinase assay; assay type: biochemical
Sequence of TEC (P42680 whole entry): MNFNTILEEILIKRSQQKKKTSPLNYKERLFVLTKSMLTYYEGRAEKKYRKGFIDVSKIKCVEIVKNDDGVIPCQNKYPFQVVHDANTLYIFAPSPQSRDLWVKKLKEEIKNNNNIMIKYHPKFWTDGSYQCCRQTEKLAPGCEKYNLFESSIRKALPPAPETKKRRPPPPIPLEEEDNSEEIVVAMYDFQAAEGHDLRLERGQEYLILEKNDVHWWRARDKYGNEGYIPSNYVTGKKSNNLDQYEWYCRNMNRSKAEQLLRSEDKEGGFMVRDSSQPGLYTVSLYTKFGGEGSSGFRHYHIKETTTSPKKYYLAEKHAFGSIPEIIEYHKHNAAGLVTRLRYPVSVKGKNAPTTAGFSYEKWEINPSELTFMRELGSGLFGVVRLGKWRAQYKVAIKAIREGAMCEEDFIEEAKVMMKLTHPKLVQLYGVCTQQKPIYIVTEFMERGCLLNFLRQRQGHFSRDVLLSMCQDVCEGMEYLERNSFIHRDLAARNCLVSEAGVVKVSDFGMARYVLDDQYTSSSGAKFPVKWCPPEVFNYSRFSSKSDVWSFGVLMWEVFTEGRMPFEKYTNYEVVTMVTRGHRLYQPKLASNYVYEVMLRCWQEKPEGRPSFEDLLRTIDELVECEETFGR
From the text: as §1

[12] = target: JAK3 (Homo sapiens (Human), UniProt P52333); test: Invitrogen Select Screening in vitro kinase assay; assay type: biochemical
Sequence of JAK3 (P52333 whole entry): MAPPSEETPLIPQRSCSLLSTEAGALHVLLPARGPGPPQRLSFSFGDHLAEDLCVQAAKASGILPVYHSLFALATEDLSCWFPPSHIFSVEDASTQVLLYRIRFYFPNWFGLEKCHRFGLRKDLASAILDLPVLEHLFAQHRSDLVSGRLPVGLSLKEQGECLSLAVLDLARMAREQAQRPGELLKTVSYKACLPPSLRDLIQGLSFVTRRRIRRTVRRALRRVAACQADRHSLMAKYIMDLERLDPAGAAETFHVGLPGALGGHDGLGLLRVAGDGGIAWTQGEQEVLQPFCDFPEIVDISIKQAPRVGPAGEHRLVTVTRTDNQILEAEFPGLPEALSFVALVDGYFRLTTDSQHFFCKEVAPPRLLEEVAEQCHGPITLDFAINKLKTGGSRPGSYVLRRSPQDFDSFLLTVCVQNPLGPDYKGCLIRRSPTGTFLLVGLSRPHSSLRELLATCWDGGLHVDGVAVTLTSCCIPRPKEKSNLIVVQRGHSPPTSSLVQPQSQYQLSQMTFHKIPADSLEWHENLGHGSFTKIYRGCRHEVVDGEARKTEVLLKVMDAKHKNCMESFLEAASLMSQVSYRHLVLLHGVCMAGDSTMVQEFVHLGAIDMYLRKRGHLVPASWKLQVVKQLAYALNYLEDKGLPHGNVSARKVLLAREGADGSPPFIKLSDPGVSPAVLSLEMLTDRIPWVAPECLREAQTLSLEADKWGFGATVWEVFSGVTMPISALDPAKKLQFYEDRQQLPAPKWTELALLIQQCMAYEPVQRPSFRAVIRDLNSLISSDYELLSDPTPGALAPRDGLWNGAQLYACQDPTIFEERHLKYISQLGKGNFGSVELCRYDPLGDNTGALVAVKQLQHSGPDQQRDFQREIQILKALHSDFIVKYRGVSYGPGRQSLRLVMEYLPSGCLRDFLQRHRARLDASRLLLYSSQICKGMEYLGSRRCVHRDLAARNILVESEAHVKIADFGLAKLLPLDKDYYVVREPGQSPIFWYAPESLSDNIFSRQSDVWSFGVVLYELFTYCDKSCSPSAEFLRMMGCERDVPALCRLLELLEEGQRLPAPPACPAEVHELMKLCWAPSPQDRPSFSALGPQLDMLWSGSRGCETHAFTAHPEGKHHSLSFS

SMILES | EC50 [1] [nM] | EC50 [2] [nM] | EC50 [3] [nM] | EC50 [4] [nM] | EC50 [5] [nM] | IC50 [6] | IC50 [7] [nM] | IC50 [8] [nM] | EC50 [9] [nM] | IC50 [10] [nM] | IC50 [11] [nM] | IC50 [12] [nM]
C=CC(=O)N1CCc2ccc(-n3c(=O)ccc4cnc5ccc(-c6ccc(S(=O)(=O)NC(C)(C)C)cc6)cc5c43)cc21 [I-11] | – | – | – | – | – | 18.1 nM and 18 nM | 11 | 536 | – | – | – | –
C=CC(=O)Nc1cc(-n2c(=O)ccc3cnc4ccc(-c5ccc6c(c5)OCCO6)cc4c32)ccc1C [I-18] | – | – | – | – | – | 13.3 nM and 13 nM | 16 | 642 | – | – | – | –
C=CC(=O)Nc1cc(-n2c(=O)ccc3cnc4ccc(Nc5ccc6cnccc6c5)cc4c32)ccc1C [I-27] | 1350 | 9150 | 2590 | 6280 | 374 | – | – | – | 345 | – | – | –
C=CC(=O)N1CCc2ccc(-n3c(=O)ccc4cnc5ccc(-c6ccc(COc7cccc(C(F)(F)F)c7)cc6)cc5c43)cc21 [I-10] | 2120 | 5750 | 3660 | 3770 | 290 | > 10000 nM | 1060 | – | – | – | – | –
C=CC(=O)Nc1cc(-n2c(=O)ccc3cnc4ccc(Nc5ccc6cccnc6c5)cc4c32)ccc1C [I-28] | 4440 | 7490 | 3590 | 3430 | 1050 | – | – | – | 691 | – | – | –
C=CC(=O)N1CCc2ccc(-n3c(=O)ccc4cnc5ccc(-c6cnc7ccccc7c6)cc5c43)cc21 [II-12] | – | – | – | – | – | 5.62 nM and 6 nM | 7 | 59 | – | – | – | –
C=CC(=O)Nc1cc(-n2c(=O)ccc3cnc4ccc(/C=C/c5ccccc5)cc4c32)ccc1C [I-16] | 490 | 1780 | 1120 | 420 | 80 | 27.8 nM and 28 nM | 105 | – | – | – | – | –
C=CC(=O)Nc1cc(-n2c(=O)ccc3cnc4ccc(-c5ccc6ccncc6c5)cc4c32)ccc1C [I-21] | 93 | 56 | 109 | 57 | 90 | – | – | – | – | – | – | –
C=CC(=O)N1CCc2ccc(-n3c(=O)ccc4cnc5ccc(-c6ccc(N)nc6)cc5c43)cc21 [II-13] | 770 | 2470 | 1670 | 1350 | 100 | 13.3 nM and 13 nM | 6 | 98 | – | 300 | 27 | 5640
C=CC(=O)Nc1cc(-n2c(=O)ccc3cnc4ccc(-c5ccc6occc6c5)cc4c32)ccc1C [I-20] | 1020 | 798 | 1100 | 602 | > 20000 | – | – | – | – | – | – | –
C=CC(=O)N1CCc2ccc(-n3c(=O)ccc4cnc5ccc(-c6ccc(C(=O)NC)cc6F)cc5c43)cc21 [I-9] | – | – | – | – | – | – | 54 | – | – | – | – | –
C=CC(=O)Nc1cc(-n2c(=O)ccc3cnc4ccc(-c5ccc(NC(=O)NC)cc5)cc4c32)ccc1C [I-8] | – | – | – | – | – | 40.6 nM | 66 | – | – | – | – | 4170
C=CC(=O)Nc1cc(-n2c(=O)ccc3cnc4ccc(-c5ccc6c(c5)OCO6)cc4c32)ccc1C [I-23] | 849 | 610 | 1170 | 653 | 19 | – | – | – | – | – | – | –
C=CC(=O)Nc1cc(-n2c(=O)ccc3cnc4ccc(-c5cnn(S(=O)(=O)c6ccccc6)c5)cc4c32)ccc1C [II-23] | 643 | 1550 | 408 | 872 | 454 | – | – | – | 86 | – | – | –
C=CC(=O)N1CCc2ccc(-n3c(=O)ccc4cnc5ccc(-c6ccc(N7CCN(C)CC7)cc6)cc5c43)cc21 [I-17] | 490 | 1780 | 1120 | 420 | 80 | 399 nM | 155 | 516 | – | – | – | 5580
C=CC(=O)Nc1cc(-n2c(=O)ccc3cnc4ccc(-c5ccc6ocnc6c5)cc4c32)ccc1C [I-24] | 345 | 284 | 516 | 355 | 24 | – | – | – | – | – | – | –
C=CC(=O)Nc1cc(-n2c(=O)ccc3cnc4ccc(Nc5ccc6ccncc6c5)cc4c32)ccc1C [I-26] | 3580 | 6820 | 3340 | 3830 | 659 | – | – | – | 663 | – | – | –
C=CC(=O)Nc1cc(-n2c(=O)ccc3cnc4ccc(-c5ccc(COc6cccc(C(F)(F)F)c6)cc5)cc4c32)ccc1C [I-13] | – | – | – | – | – | 18.1 nM and 28 nM | 37 | – | – | – | – | –
C=CC(=O)N1CCc2ccc(-n3c(=O)ccc4cnc5ccc(-c6cnc(N)cc6C(F)(F)F)cc5c43)cc21 [II-15] | – | – | – | – | – | – | 337 | – | – | – | – | –
C=CC(=O)Nc1cc(-n2c(=O)ccc3cnc4ccc(Nc5ccc6ncccc6c5)cc4c32)ccc1C [I-29] | 2200 | 7290 | 3080 | 2570 | 390 | – | – | – | 528 | – | – | –
C=CC(=O)Nc1cc(-n2c(=O)ccc3cnc4ccc(-c5ccc(C(N)=O)cc5)cc4c32)ccc1C [I-15] | – | – | – | – | – | – | 79 | – | – | – | – | –

Continued, values first:

EC50 [1] [nM] | EC50 [2] [nM] | EC50 [3] [nM] | EC50 [4] [nM] | EC50 [5] [nM] | IC50 [6] | IC50 [7] [nM] | IC50 [8] [nM] | EC50 [9] [nM] | IC50 [10] [nM] | IC50 [11] [nM] | IC50 [12] [nM] | SMILES
203 | 117 | 180 | 91 | 51 | – | – | – | – | – | – | – | C=CC(=O)Nc1cc(-n2c(=O)ccc3cnc4ccc(-c5ccc6[nH]ncc6c5)cc4c32)ccc1C [I-22]
– | – | – | – | – | 10.5 nM and 11 nM | 18 | 41 | – | – | – | – | C=CC(=O)Nc1cccc(-n2c(=O)ccc3cnc4ccc(-c5cn[nH]c5)cc4c32)c1 [II-8]
– | – | – | – | – | 8.16 nM and 8 nM | 14 | 173 | – | – | – | – | C=CC(=O)Nc1cc(-n2c(=O)ccc3cnc4ccc(-c5cnn(C)c5)cc4c32)ccc1C [II-3]
643 | 1550 | 408 | 872 | 454 | 12.9 nM and 13 nM | 16 | 17 | 86 | – | – | – | C=CC(=O)Nc1cc(-n2c(=O)ccc3cnc4ccc(-c5ccc(N)nc5)cc4c32)ccc1C [II-5]
– | – | – | – | – | 19.7 nM and 20 nM | 39 | 369 | – | – | – | – | C=CC(=O)Nc1cc(-n2c(=O)ccc3cnc4ccc(-c5ccsc5)cc4c32)ccc1C [II-9]
190 | 670 | 240 | 200 | 90 | 66.1 nM and 66 nM | 115 | 1 | – | 1950 | – | 1520 | C=CC(=O)Nc1cc(-n2c(=O)ccc3cnc4ccc(-c5cccnc5)cc4c32)ccc1C [II-11]
410 | 2160 | 480 | 280 | 70 | 12.1 nM and 12 nM | 17 | 4790 | – | – | – | 492 | C=CC(=O)Nc1cc(-n2c(=O)ccc3cnc4ccc(-c5ccoc5)cc4c32)ccc1C [II-10]
– | – | – | – | – | 18.5 nM and 19 nM | 25 | 32 | – | – | – | – | C=CC(=O)Nc1cc(-n2c(=O)ccc3cnc4ccc(-c5cnc6ccccc6c5)cc4c32)ccc1C [II-16]
180 | 950 | 380 | 310 | 10 | 15.9 nM and 16 nM | 25 | 210 | – | 250 | – | – | C=CC(=O)Nc1cc(-n2c(=O)ccc3cnc4ccc(-c5ccccc5)cc4c32)ccc1C [I-7]
– | – | – | – | – | 15.7 nM and 16 nM | 19 | 19 | – | – | – | – | C=CC(=O)Nc1cccc(-n2c(=O)ccc3cnc4ccc(-c5ccc(N)nc5)cc4c32)c1 [II-7]
